Measured values from PubChem BioAssay (NCI).
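Dose response: 5 concentrations. Exposure: 48 h. Format: 96-well plates. Endpoint: linear interpolation; highest concentration if not reached. At the GI50, growth is halved. TGI: total growth inhibition.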

How the values were obtained:
Experiment in all cases: growth of human tumour cells (NCI), 48 h
[1] = test system: SF-268 CNS
[2] = test system: UACC-62 melanoma
[3] = test system: RPMI-8226 leukemia
[4] = test system: HOP-62 NSCLC
[5] = test system: MALME-3M melanoma
[6] = test system: KM12 colon
[7] = test system: MCF7 breast
[8] = test system: SF-295 CNS
[9] = test system: HS 578T breast
[10] = test system: ACHN renal
[11] = test system: DU-145 prostate
[12] = test system: EKVX NSCLC
[13] = test system: M14 melanoma
[14] = test system: HT29 colon
[15] = test system: OVCAR-8 ovarian
[16] = test system: COLO 205 colon
[17] = test system: NCI/ADR-RES ovarian
[18] = test system: CAKI-1 renal
[19] = test system: CCRF-CEM leukemia
[20] = test system: MDA-MB-435
[21] = test system: HCT-15 colon
[22] = test system: SNB-19 CNS
[23] = test system: TK-10 renal
[24] = test system: SK-MEL-5 melanoma
[25] = test system: U251 CNS
[26] = test system: SK-MEL-28 melanoma
[27] = test system: OVCAR-3 ovarian
[28] = test system: SF-539 CNS
[29] = test system: SK-OV-3 ovarian
[30] = test system: OVCAR-5 ovarian
[31] = test system: 786-0 renal
[32] = test system: UACC-257 melanoma
[33] = test system: IGROV1 ovarian
[34] = test system: LOX IMVI melanoma
[35] = test system: A549 NSCLC
[36] = test system: OVCAR-4 ovarian
[37] = test system: BT-549 breast
[38] = test system: T-47D breast
[39] = test system: UO-31 renal
[40] = test system: SNB-75 CNS
[41] = test system: A498 renal
[42] = test system: SN12C renal
[43] = test system: PC-3 prostate
[44] = test system: HCT-116 colon
[45] = test system: NCI-H23 lung
[46] = test system: HCC-2998 colon
[47] = test system: NCI-H226 lung
[48] = test system: MOLT-4 leukemia
[49] = test system: RXF 393 renal
[50] = test system: NCI-H460 lung
[51] = test system: MDA-MB-231 breast
[52] = test system: SR leukemia
[53] = test system: NCI-H522 lung
[54] = test system: SW-620 colon

Q: `N#Cc1c(N)nc(NCc2ccccc2)c(C#N)c1-c1ccc(Cl)cc1` was tested. Which GI50 [1] did it give?
A: The GI50 was 14.3 µM.

Q: What about the TGI [1] of the same molecule?
A: The TGI was 35.6 µM.

Q: And the GI50 [2]?
A: The GI50 was 14.7 µM.

Q: And the TGI [2]?
A: The TGI was 33.5 µM.

Q: What about the GI50 [3] of the same molecule?
A: Its GI50 is 18.9 µM.

Q: And the TGI [3]?
A: Its TGI is 97.1 µM.

Q: What about the GI50 [4] of the same molecule?
A: Its GI50 is 16.1 µM.

Q: What about the TGI [4] of the same molecule?
A: Its TGI is 31.2 µM.

Q: What about the GI50 [5] of the same molecule?
A: Its GI50 is 14.4 µM.

Q: What about the TGI [5] of the same molecule?
A: The TGI was 54.5 µM.

Q: What about the GI50 [6] of the same molecule?
A: Its GI50 is 25.2 µM.

Q: What about the TGI [6] of the same molecule?
A: The TGI was > 100 µM.

Q: What about the GI50 [7] of the same molecule?
A: Its GI50 is 13.8 µM.

Q: And the TGI [7]?
A: Its TGI is 83.1 µM.

Q: And the GI50 [8]?
A: The GI50 was 14.2 µM.

Q: What about the TGI [8] of the same molecule?
A: Its TGI is 34.4 µM.

Q: And the GI50 [9]?
A: Its GI50 is 15.6 µM.

Q: And the TGI [9]?
A: The TGI was 40.4 µM.

Q: And the GI50 [10]?
A: The GI50 was 13.4 µM.

Q: And the TGI [10]?
A: The TGI was 32.8 µM.

Q: And the GI50 [11]?
A: The GI50 was 17.7 µM.

Q: What about the TGI [11] of the same molecule?
A: Its TGI is 55.7 µM.

Q: What about the GI50 [12] of the same molecule?
A: The GI50 was 27.3 µM.

Q: What about the TGI [12] of the same molecule?
A: The TGI was 79 µM.

Q: What about the GI50 [13] of the same molecule?
A: Its GI50 is 20 µM.

Q: What about the TGI [13] of the same molecule?
A: Its TGI is 99.7 µM.

Q: What about the GI50 [14] of the same molecule?
A: The GI50 was 22.3 µM.

Q: And the TGI [14]?
A: The TGI was > 100 µM.

Q: And the GI50 [15]?
A: Its GI50 is 19 µM.

Q: And the TGI [15]?
A: Its TGI is 57.2 µM.

Q: What about the GI50 [16] of the same molecule?
A: Its GI50 is 46.9 µM.

Q: What about the TGI [16] of the same molecule?
A: The TGI was > 100 µM.

Q: What about the GI50 [17] of the same molecule?
A: Its GI50 is 19.8 µM.

Q: And the TGI [17]?
A: The TGI was 60 µM.

Q: And the GI50 [18]?
A: The GI50 was 20.1 µM.

Q: What about the TGI [18] of the same molecule?
A: Its TGI is 46.7 µM.

Q: What about the GI50 [19] of the same molecule?
A: The GI50 was 28.2 µM.

Q: And the TGI [19]?
A: Its TGI is > 100 µM.

Q: What about the GI50 [20] of the same molecule?
A: The GI50 was 15.7 µM.

Q: What about the TGI [20] of the same molecule?
A: The TGI was 43.6 µM.

Q: What about the GI50 [21] of the same molecule?
A: Its GI50 is 18.8 µM.

Q: What about the TGI [21] of the same molecule?
A: Its TGI is > 100 µM.

Q: What about the GI50 [22] of the same molecule?
A: The GI50 was 31.6 µM.

Q: And the TGI [22]?
A: The TGI was > 100 µM.

Q: What about the GI50 [23] of the same molecule?
A: Its GI50 is 14.4 µM.

Q: What about the TGI [23] of the same molecule?
A: Its TGI is 32.8 µM.

Q: And the GI50 [24]?
A: Its GI50 is 25.9 µM.

Q: What about the TGI [24] of the same molecule?
A: Its TGI is > 100 µM.

Q: What about the GI50 [25] of the same molecule?
A: Its GI50 is 12.4 µM.

Q: And the TGI [25]?
A: The TGI was 26.9 µM.

Q: What about the GI50 [26] of the same molecule?
A: The GI50 was 25.9 µM.

Q: What about the TGI [26] of the same molecule?
A: The TGI was > 100 µM.

Q: And the GI50 [27]?
A: The GI50 was 14.7 µM.

Q: And the TGI [27]?
A: Its TGI is 37.1 µM.

Q: And the GI50 [28]?
A: The GI50 was 25.9 µM.

Q: What about the TGI [28] of the same molecule?
A: The TGI was 68.1 µM.

Q: What about the GI50 [29] of the same molecule?
A: Its GI50 is 33.2 µM.

Q: What about the TGI [29] of the same molecule?
A: The TGI was > 100 µM.

Q: And the GI50 [30]?
A: The GI50 was 24.2 µM.

Q: What about the TGI [30] of the same molecule?
A: The TGI was 76.1 µM.

Q: And the GI50 [31]?
A: The GI50 was 20 µM.

Q: What about the TGI [31] of the same molecule?
A: Its TGI is 38.6 µM.

Q: What about the GI50 [32] of the same molecule?
A: The GI50 was 67.9 µM.

Q: And the TGI [32]?
A: Its TGI is > 100 µM.

Q: What about the GI50 [33] of the same molecule?
A: Its GI50 is 13.5 µM.

Q: What about the TGI [33] of the same molecule?
A: Its TGI is 32.4 µM.

Q: And the GI50 [34]?
A: The GI50 was 12.4 µM.

Q: What about the TGI [34] of the same molecule?
A: Its TGI is 29.3 µM.

Q: And the GI50 [35]?
A: The GI50 was 28.3 µM.

Q: And the TGI [35]?
A: The TGI was > 100 µM.

Q: What about the GI50 [36] of the same molecule?
A: The GI50 was 9.57 µM.

Q: What about the TGI [36] of the same molecule?
A: Its TGI is > 100 µM.

Q: What about the GI50 [37] of the same molecule?
A: The GI50 was 19.6 µM.

Q: What about the TGI [37] of the same molecule?
A: The TGI was 60.4 µM.

Q: What about the GI50 [38] of the same molecule?
A: The GI50 was 27.3 µM.

Q: What about the TGI [38] of the same molecule?
A: Its TGI is > 100 µM.

Q: What about the GI50 [39] of the same molecule?
A: Its GI50 is 31.9 µM.

Q: And the TGI [39]?
A: The TGI was > 100 µM.

Q: What about the GI50 [40] of the same molecule?
A: Its GI50 is 22.1 µM.

Q: What about the TGI [40] of the same molecule?
A: Its TGI is 72.3 µM.

Q: And the GI50 [41]?
A: Its GI50 is 10.4 µM.

Q: What about the TGI [41] of the same molecule?
A: The TGI was 26.4 µM.

Q: What about the GI50 [42] of the same molecule?
A: Its GI50 is 16.1 µM.

Q: And the TGI [42]?
A: The TGI was 38.3 µM.

Q: And the GI50 [43]?
A: Its GI50 is 17.9 µM.

Q: What about the TGI [43] of the same molecule?
A: The TGI was 48.7 µM.

Q: And the GI50 [44]?
A: Its GI50 is 15.8 µM.

Q: And the TGI [44]?
A: Its TGI is 41.3 µM.

Q: And the GI50 [45]?
A: The GI50 was 22.8 µM.

Q: What about the TGI [45] of the same molecule?
A: The TGI was 80 µM.

Q: What about the GI50 [46] of the same molecule?
A: The GI50 was 71.1 µM.

Q: What about the TGI [46] of the same molecule?
A: The TGI was > 100 µM.

Q: And the GI50 [47]?
A: The GI50 was 10.6 µM.

Q: And the TGI [47]?
A: Its TGI is 31.2 µM.

Q: What about the GI50 [48] of the same molecule?
A: The GI50 was 34.3 µM.

Q: And the TGI [48]?
A: Its TGI is > 100 µM.

Q: What about the GI50 [49] of the same molecule?
A: The GI50 was 26.5 µM.

Q: What about the TGI [49] of the same molecule?
A: The TGI was 74.1 µM.

Q: What about the GI50 [50] of the same molecule?
A: Its GI50 is 10.2 µM.

Q: What about the TGI [50] of the same molecule?
A: Its TGI is 28.7 µM.

Q: And the GI50 [51]?
A: Its GI50 is 14.2 µM.

Q: And the TGI [51]?
A: The TGI was 33.2 µM.

Q: And the GI50 [52]?
A: Its GI50 is 13.3 µM.

Q: What about the TGI [52] of the same molecule?
A: The TGI was 52.8 µM.

Q: What about the GI50 [53] of the same molecule?
A: Its GI50 is 20.9 µM.

Q: What about the TGI [53] of the same molecule?
A: Its TGI is 57.5 µM.

Q: What about the GI50 [54] of the same molecule?
A: The GI50 was 16.2 µM.

Q: What about the TGI [54] of the same molecule?
A: The TGI was 96.9 µM.
